“Also recorded” adds a separate entry of the source.
Columns and labels:
[1] = test system: human non-small cell lung cancer cells (NCIH-460); assay: killing of NCIH-460 cells by CLIPS-cyclised peptides of different warhead length (Table 1); type: cell-based
Experimental: The inventor undertook testing of the effect of various peptides which were cyclised using CLIPS technology on the killing of human non-small cell lung cancer cells (NCIH-460) in vitro. For each of the peptides, between two and four isomer fractions were received, giving a total of 12 peptide entities tested.
The following warhead lengths, obtained by adding flanking sarcosine residues, were tested: […]

NCI-H460 cells = assay: viability assay of CLIP cyclised peptides on NCI-H460 cells (Example 3, Table 2); type: cell-based, human; conditions: for cytotoxic activity against NCIH460 cells (in words): with and without Nanocin-PRO
Experimental: The following protocol was used: • 1) NCI-H460 cells were grown in Ham's F12 media supplemented with 10% FBS. • 2) Cells were harvested and seeded into 96-well plates at 500 cells per well. • 3) Peptides were diluted 1:2 from DMSO stock solutions to generate a 9-point dose range from a top concentration of 300 μM. Final DMSO concentration was constant at 1% (v/v). • 4) In line with the supplied Nanocin-PRO protocol, diluted peptides were incubated with Nanocin-PRO in media for 20 minutes prior to addition to cells. Nanocin-PRO was used at a final assay concentration of 0.2 μl per well. • 5) Cells were grown in the presence of peptide for 96 hours at 37° C., 5% CO2 in a humidified atmosphere. • 6) After 96 h, Alamar blue 10% (v/v) was added, incubated for a further 4 h and fluorescent product detected using a BMG FLUOstar plate reader. • 7) Media only background readings were subtracted before data was analysed using a 4-parameter logistic equation in GraphPad Prism.
Viability assays of the CLIP cyclised peptides were performed to examine the effect of four HILRa clipped peptides on the viability of NCIH460 cells (up to three isomers for each of the peptides). […] Results for HILRa 16A, 16B, 16C and HILRa 17A, 17B and 17C are depicted in FIG. 2.
Assays were performed in the presence and absence of the peptide transfection reagent Nanocin-PRO.

[2] = 0.2 μl Nanocin-PRO per well, 96 h

| Molecule | % inhibition at 1 mM ([1]; 0.2 μl Nanocin-PRO per well) [%] | % inhibition at 1 mM ([1]; No Nanocin-PRO) [%] | % inhibition at 300 μM (NCI-H460 cells; [2]) [%] | % inhibition at 300 μM (NCI-H460 cells; No Nanocin-PRO, 96 h) [%] | cytotoxic activity against NCIH460 cells (in words) (NCI-H460 cells) | IC50 (NCI-H460 cells; 0.2 μl Nanocin-PRO per well, 96 h, values in brackets approximate) [µM] |
| --- | --- | --- | --- | --- | --- | --- |
| Ac-C[Sar][Sar]PKGPKP[Sar][Sar]C-NH2 (CXXPKGPKPXXC; N-acetyl; C-amide; sarcosines; HILRa-CL-12 Synthesized; Sar (2)..(2) X = Sarcosine; Sar (3)..(3) X = Sarcosine; Sar (10)..(10) X = Sarcosine; Sar (11)..(11) X = Sarcosine) | 0.8 | 0.0 |  |  |  |  |
| Ac-CDacHcaSarProHcaNapC-NH2 [HILRa CL-14-A] |  |  | 9.9 | 10.5 | low detectable cancer cell-necrotic activity |  |
| Ac-C[Sar]PKGPRP[Sar]C-NH2 (CXPKGPRPXC; N-acetyl; C-amide; sarcosines; HILRa-CL-05 Synthesized; Sar (2)..(2) X = Sarcosine; Sar (9)..(9) X = Sarcosine) | 1.1 | 0.0 |  |  |  |  |
| Ac-CDacHcaSarProHcaNapC-NH2 [HILRa-CL-14] |  |  |  |  | negligible activity |  |
| COc1ccc2c(C[C@@H]3NC(=O)[C@@H](NC(C)=O)CSCc4cccc(c4)CSC[C@@H](C(N)=O)NC(=O)CC(c4ccc5ccccc5c4)NC(=O)[C@H](CCCNC(=N)N)NC(=O)CC(c4ccc5ccccc5c4)NC(=O)CN(C)C(=O)[C@H](CCCNC(=N)N)NC3=O)cc(=O)oc2c1 (single isomer, unassigned) [HILRa CL-17-B, Ac-C[Dac]R[Sar][Nap]R[Nap]C-NH2] |  |  | 99.3 | 99.2 |  | ~2.1 |
| COc1ccc2c(C[C@@H]3NC(=O)[C@@H](NC(C)=O)CSCc4cccc(c4)CSC[C@@H](C(N)=O)NC(=O)CC(c4ccc5ccccc5c4)NC(=O)[C@H](CCCNC(=N)N)NC(=O)C4N(CCC4(C)C)C(=O)CN(C)C(=O)[C@H](CCCNC(=N)N)NC3=O)cc(=O)oc2c1 (single isomer, unassigned) [HILRa CL-15-C, Ac-C[Dac]R[Sar][dmPro]R[Nap]C-NH2] |  |  | 88.5 | 23.8 |  |  |
| COc1ccc2c(C[C@@H]3NC(=O)[C@@H](NC(C)=O)CSCc4cccc(c4)CSC[C@@H](C(N)=O)NC(=O)CC(c4ccc5ccccc5c4)NC(=O)[C@H](CCCNC(=N)N)NC(=O)C4N(CCC4(C)C)C(=O)CN(C)C(=O)[C@H](CCCNC(=N)N)NC3=O)cc(=O)oc2c1 (single isomer, unassigned) [HILRa CL-15-B, Ac-C[Dac]R[Sar][dmPro]R[Nap]C-NH2] |  |  | 87.5 | 20.2 |  |  |
| Ac-CDacHcaSarNapHcaNapC-NH2 [HILRa CL-16-C] |  |  | 0.5 | 26.9 | completely removed the cell killing effect; also recorded: low detectable cancer cell-necrotic activity |  |
| Ac-CPKGPRPC-NH2 [HILRa-CL-04] | 8.5 | 0.0 |  |  |  |  |
| Ac-CDacHcaSarNapHcaNapC-NH2 [HILRa-CL-16] |  |  |  |  | negligible activity |  |
| Ac-CDacHcaSarProHcaNapC-NH2 [HILRa CL-14-B] |  |  | 6.8 | 5.8 | low detectable cancer cell-necrotic activity |  |
| Ac-C[Sar][Sar]PKGPRP[Sar][Sar]C-NH2 (CXXPKGPRPXXC; N-acetyl; C-amide; sarcosines; HILRa-CL-06 Synthesized; Sar (2)..(2) X = Sarcosine; Sar (3)..(3) X = Sarcosine; Sar (10)..(10) X = Sarcosine; Sar (11)..(11) X = Sarcosine) | 6.1 | 0.0 |  |  |  |  |
| Ac-CPKGPKPC-NH2 [HILRa-CL-10] | 0.8 | 2.2 |  |  |  |  |
| Ac-C[Sar]PRGPRP[Sar]C-NH2 (CXPRGPRPXC; N-acetyl; C-amide; sarcosines; HILRa-CL-02 Synthesized; Sar (2)..(2) X = Sarcosine; Sar (9)..(9) X = Sarcosine) | 2.0 | 0.0 |  |  |  |  |

Reference: US12570697B2, “Cyclic peptide useful in the treatment of cancer” (Syntherix Limited, priority 2019, dated 2026)
